Patent publication US20240398783A1, “Compounds and Pharmaceutical Compositions Comprising Inhibitors of Amyloid Peptide Interactions with Glycosaminoglycans, Methods of Treatment and Use Thereof” (Gismo Therapeutics, Inc., priority 2021, published 2024)
pIC50: −log10 of the molar value. Counter-ions that a name gives are not always drawn. Like-named read-outs stand apart in the source and are kept apart here.

What was measured:
[1] = target: Amyloid-beta(1-40) binding to heparin (HS-GAG) (Homo sapiens, UniProt P05067); experiment: Inhibition of Amyloid-beta(1-40) binding to immobilized heparin-BSA (ELISA); set-up: species or system porcine; conditions: for pIC50: co-incubation on heparin-BSA plates; for inhibition at 30 µM: read-out: Abeta40/Heparin Activity (% inhibition class)
Chain of Amyloid-beta(1-40) binding to heparin (HS-GAG) (P05067 672-711): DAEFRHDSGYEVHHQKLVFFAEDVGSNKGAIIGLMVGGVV
Procedure: (§1) Porcine intestinal mucosa heparin conjugated to Bovine Serum Albumin (Heparin-BSA) was prepared as described (Najjam, S. et al. 1997, Cytokine 12, 1013-1022). Heparin is a sulfated HS-GAG and is commonly used as a HS-GAG in biochemical and binding assays (Lindahl, U. and Kjellen, L. (2013) ibid). Heparin-BSA at 0.01 mg/ml in Phosphate Buffered Saline (PBS; pH 7.4) was added to a 96 well polystyrene ELISA plate (NUNC Cat. No. 449824; 100 μl per well) and incubated Over Night (ON) at 4 degrees Celsius. For negative controls, ELISA plates were coated with BSA instead of Heparin-BSA, using the same procedure. Following the incubation, the plate was washed consecutively, by immersion, with de-ionized water and PBS (pH 7.4). The ELISA plate was then blocked with nonfat milk (2%, 200 μl per well) for 2 hours at Room Temperature (RT) with gentle shaking. Following blocking, the plate was washed with de-ionized water then PBS (pH 7.4). GBAPs were dissolved and diluted in PBS (pH 6.5, supplemented with 0.1% BSA) at desired concentrations, added to the ELISA plates containing immobilized Heparin-BSA (100 μl per well) and incubated for 2 hours at RT with gentle shaking. Following incubation, the plate was washed with de-ionized water and three times with PBS (pH 6.5) plus Tween. Bound GBAP was detected by a monoclonal antibody specific for that GBAP, followed by incubation with secondary antibody conjugated to horseradish peroxidase (HRP). Antibody was diluted in PBS (pH 6.5 supplemented with 1% BSA). Following each incubation with antibody, the plate was washed with de-ionized water and three times with PBS (pH 6.5) wash buffer containing 0.1% Tween. The peroxidase substrate chromogen, TMB (Dako Cat. No. S1599) was added (100 μl per well) to the ELISA plate and incubated at room temperature. After 5 minutes ELISA Stop Solution (hydrochloric acid 1N, sulfuric acid 3N) was added (100 μl per well) to stop the peroxidase catalyzed colorimetric reaction. The Optical Density of the samples was measured at 450 nm using an ELISA plate reader (BioTek Synergy H1). Following color development, the % inhibition compared to control (BSA-coated plates) was determined. IC-50s were calculated using GraphPad Prism software.
The assay was performed as described in Example 43, with the following modifications. Following to coating the plates with Heparin-BSA, plates were washed as described. The compounds were dissolved in DMSO at 10 mM final concentration and further diluted prior to assay. DMSO concentration in the screening well was up to 2%. Individual compounds were co-incubated with Beta-amyloid peptides on plates containing immobilized heparin. Beta-amyloid (1-42) was purchased from rPeptide (Cat. No. A1163) and used to prepare oligomers according to Stine et al., 2003 (J Biol Chem. 278(13):11612-22) as follows. 1,1,1,3,3,3-Hexafluoro-2-propanol- (HFIP; Sigma Cat. No. 105228)-treated Beta amyloid (1-42) was dissolved in dry DMSO (Sigma Cat. No. D2650) to 5 mM concentration. Dissolved Beta amyloid (1-42) was then diluted to 100 μM in ice-cold cell culture medium (phenol red-free Ham's F-12; Caisson Labs, Cat. No. HFL05), followed immediately by vortexing for 30 seconds, and incubating at 4 degrees Celsius for 24 h. Resulting Beta amyloid (1-42) oligomers were centrifuged at 12,000 rpm for 10 min at 4 degree Celsius to remove aggregates. Oligomers were then quickly frozen and kept in aliquots at −80 degrees Celsius. Beta-amyloid (1-40) from rPeptide (Cat No. A1153) was dissolved in DMSO, quickly frozen and kept in aliquots at −80 degrees Celsius. Beta-amyloid (1-42) oligomers or Beta-amyloid (1-40) diluted in PBS (pH 6.5, supplemented with BSA, 0.1%) were added to the ELISA plate (100 μl per well) and incubated for 2 hours at RT with gentle shaking. Following the incubation, the plate was washed with de-ionized water and three times with PBS (pH 6.5) plus Tween. […]

[2] = target: T1, SAA binding to heparin (HS-GAG) (Homo sapiens, UniProt P0DJI8); experiment: Inhibition of SAA binding to immobilized heparin-BSA (ELISA); set-up: species or system porcine
T1 sequence (P0DJI8 19-122): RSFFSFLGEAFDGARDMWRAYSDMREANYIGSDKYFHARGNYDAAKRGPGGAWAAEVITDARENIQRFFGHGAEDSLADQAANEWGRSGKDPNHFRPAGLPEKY
Procedure: as §1
The assay was performed as described in Example 43, with the following modifications. Following to coating the plates with Heparin-BSA, plates were washed as described. The compounds were dissolved in DMSO at 10 mM final concentration and further diluted prior to assay. DMSO concentration in the screening well was up to 2%. Individual compounds were co-incubated with SAA on plates containing immobilized heparin. Serum amyloid A (SAA) from PeProtech (NJ, USA, Cat. No. 300-53) was dissolved in DMSO, quickly frozen and kept in aliquots at −80 degrees Celsius. SAA dissolved in Tris buffer (pH 6.5, supplemented with BSA, 0.1%) was added to the ELISA plate (100 μl per well) and incubated for 2 hours at RT with gentle shaking. Following the incubation, the plate was washed with de-ionized water and three times with Tris Buffered Saline (TBS, pH 6.5) plus Tween. Bound SAA was detected by Anti-SAA Monoclonal Antibody (R&D System Cat. No. MAB30192), followed by secondary anti-IgG antibody conjugated to HRP (R&D System, Cat. No. HAF007). Antibody was diluted in TBS antibody buffer (pH6.5 supplemented with 1% BSA). Following each incubation with antibody, the plate was washed with de-ionized water and three times with TBS (pH6.5) wash buffer containing 0.1% Tween. Following to color development with TMB, as described in Example 43, the Optical Density of the samples was measured at 450 nm using an ELISA plate reader. Following color development, the % inhibition compared to control (no compound, DMSO control) for every compound was determined.
As described in Example 43, Heparin in the form of Heparin-BSA conjugate is used as a source of HS-GAG. For each compound IC-50 value in SAA—heparin-BSA binding assay is shown in μM (micromolar). […]

[3] = Abeta40/Heparin Activity (IC-50), Abeta(1-40)
[4] = read-out: Serum Amyloid A/Heparin Activity (IC-50); SAA, heparin-BSA
[5] = 30 μM compound, Abeta(1-40), heparin-BSA
[6] = 30 μM compound; SAA, heparin-BSA; read-out: Serum Amyloid A/Heparin Activity (% inhibition class)
[7] = read-out: Serum Amyloid A/Heparin Activity (% inhibition class)
[8] = Abeta(1-40), read-out: Abeta40/Heparin Activity (IC-50)
[9] = SAA, heparin-BSA; read-out: Serum Amyloid A/Heparin Activity (IC-50)

Work on `Clc1ccc2c(N/N=C/c3ccc(-n4ccnc4)cc3)ccnc2c1` [Compound 38, 4-(2-(4-(1H-imidazol-1-yl)benzylidene)hydrazineyl)-7-chloroquinoline dihydrochloride] yielded a pIC50 [1, 3] of 5.89 and a pIC50 [2, 4] of 4.83.

`Fc1ccc2c(N/N=C/c3ccc(-n4ccnc4)cc3)ccnc2c1` [Compound 5, (E)-4-(2-(4-(1H-imidazol-1-yl)benzylidene)hydrazinyl)-7-fluoroquinoline] was tested, and the pIC50 [1, 3] was 5.48 and the pIC50 [2, 4] was 4.62.

For `Fc1ccc2c(N/N=C/c3ccc(CN4CCOCC4)cc3)ccnc2c1` [Compound 6, (E)-4-(4-((2-(7-fluoroquinolin-4-yl)hydrazono)methyl)benzyl)morpholine], the inhibition at 30 µM [1, 5] was greater than 30% and the inhibition at 30 µM [2, 6] was greater than 30%.

In the case of `COc1cc(Nc2cncc3cc(Cl)ccc23)cnc1-n1cnc(C)c1C` [Compound 33, 7-chloro-N-(6-(4,5-dimethyl-1H-imidazol-1-yl)-5-methoxypyridin-3-yl)isoquinolin-4-amine phosphoric acid salt], the inhibition at 30 µM [1] was less than 30% and the inhibition at 30 µM [2, 7] was less than 30%.

`CCN1CCN(c2ccc(Nc3ccnc4cc5ccccc5cc34)cc2)CC1` [Compound 39, N-(4-(4-ethylpiperazin-1-yl)phenyl)benzo[g]quinolin-4-amine] gave a pIC50 [1, 3] of 4.68 and an inhibition at 30 µM [2, 6] greater than 30%.

Compound `COc1cc2nccc(NN=Cc3ccc(-n4ccnc4)c(C)c3)c2cc1OC` [Compound 11, 4-(2-(4-(1H-imidazol-1-yl)-3-methylbenzylidene)hydrazineyl)-6,7-dimethoxyquinoline hydrochloride] has an inhibition at 30 µM [1] greater than 30% and an inhibition at 30 µM [2, 7] of less than 30%.

`COc1cc(Nc2nncc3cc(Cl)ccc23)cnc1-n1cnc(C)c1C` [Compound 31, 6-chloro-N-(6-(4,5-dimethyl-1H-imidazol-1-yl)-5-methoxypyridin-3-yl)phthalazin-1-amine phosphoric acid salt] showed a pIC50 [1, 3] of 4.63 and an inhibition at 30 µM [2, 7] greater than 30%.

Work on `Clc1ccc2c(Nc3ccc(-n4ccnc4)nc3)ncnc2c1` [Compound 41, N-(6-(1H-imidazol-1-yl)pyridin-3-yl)-7-chloroquinazolin-4-amine] yielded a pIC50 [1, 8] of 4.49 and a pIC50 [2, 9] of 4.92.

`CCN(CC)Cc1cccc(Nc2ccnc3cc(Cl)ccc23)c1` [Compound 42, 7-chloro-N-(3-((diethylamino)methyl)phenyl)quinolin-4-amine] gave a pIC50 [1, 3] of 4.91 and an inhibition at 30 µM [2, 6] of less than 30%.

Work on `CC(=NNc1ncnc2cc(Cl)ccc12)c1ccnc(-n2cnc(C)c2C)c1` [Compound 28, 7-chloro-4-(2-(1-(2-(4,5-dimethyl-1H-imidazol-1-yl)pyridin-4-yl)ethylidene)hydrazineyl)quinazoline] yielded a pIC50 [1, 8] of 5.51 and a pIC50 [2, 9] of 5.06.

Compound `Clc1ccc2c(Nc3ccc(-n4cncn4)nc3)ncnc2c1` [Compound 34, N-(6-(1H-1,2,4-triazol-1-yl)pyridin-3-yl)-7-chloroquinazolin-4-amine phosphoric acid salt] has a pIC50 [1, 3] of 4.46 and a pIC50 [2, 4] of 4.91.

Work on `CN1CCN(Cc2ccc(/C=N/Nc3ccnc4cc(Cl)ccc34)cc2)CC1` [Compound 7, (E)-7-chloro-4-(2-(4-((4-methylpiperazin-1-yl)methyl)benzylidene)hydrazinyl)quinolone] yielded a pIC50 [1, 3] of 4.60 and an inhibition at 30 µM [2, 6] greater than 30%.

In the case of `Cc1ncn(-c2ccc(/C=N/Nc3ccnc4cc(Cl)ccc34)cc2)c1C` [Compound 2, (E)-7-chloro-4-((E)-(4-(4,5-dimethyl-1H-imidazol-1-yl)benzylidene)hydrazono)-1,4-dihydroquinoline], the pIC50 [1, 3] was 4.64 and the pIC50 [2, 4] was 4.79.

`CC(=NNc1ccnc2cc(Cl)ccc12)c1ccc(-n2cnc(C)c2C)nc1` [Compound 22, 7-chloro-4-(2-(1-(6-(4,5-dimethyl-1H-imidazol-1-yl)pyridin-3-yl)ethylidene)hydrazineyl)quinoline] showed a pIC50 [1, 3] of 4.79 and a pIC50 [2, 4] of 4.08.

`O=S1(=O)CCN(Cc2ccc(/C=N/Nc3ccnc4cc(F)ccc34)cc2)CC1` [Compound 10, (E)-4-(4-((2-(7-fluoroquinolin-4-yl)hydrazono)methyl)benzyl)thiomorpholine 1,1-dioxide] was tested, and the pIC50 [1, 3] was 4.45 and the inhibition at 30 µM [2, 6] was less than 30%.

`COc1cc2nccc(N/N=C/c3ccc(-n4ccnc4)c(OC)c3)c2cc1OC` [Compound 13, (E)-4-(2-(4-(1H-imidazol-1-yl)-3-methoxybenzylidene)hydrazineyl)-6,7-dimethoxyquinoline phosphate] gave an inhibition at 30 µM [1] of less than 30% and an inhibition at 30 µM [2, 7] of less than 30%.

Work on `CN1CCN(c2cc(Nc3ccnc4cc(Cl)ccc34)ccn2)CC1` [Compound 20, 7-chloro-N-(2-(4-methylpiperazin-1-yl)pyridin-4-yl)quinolin-4-amine] yielded an inhibition at 30 µM [1] of less than 30% and an inhibition at 30 µM [2, 7] greater than 30%.

`C/C(=N\Nc1ncnc2cc(F)ccc12)c1ccc(-n2cc[n+](C)c2)nc1` [Compound 26, (E)-1-(5-(1-(2-(7-fluoroquinazolin-4-yl)hydrazineylidene)ethyl)pyridin-2-yl)-3-methyl-1H-imidazol-3-ium phosphoric acid salt] gave a pIC50 [1, 3] of 4.99 and an inhibition at 30 µM [2, 7] of less than 30%.

`Clc1ccc2c(N/N=C/c3ccc(-n4cccn4)cc3)ccnc2c1` [Compound 3, (E)-4-((E)-(4-(1H-pyrazol-1-yl)benzylidene)hydrazono)-7-chloro-1,4-dihydroquinoline] gave a pIC50 [1, 3] of 5.56 and an inhibition at 30 µM [2, 7] greater than 30%.

For `CN(C)Cc1cc(Nc2ccnc3cc(Cl)ccc23)ccn1` [Compound 45, 7-chloro-N-(2-((dimethylamino)methyl)pyridin-4-yl)quinolin-4-amine], the inhibition at 30 µM [1, 5] was less than 30% and the pIC50 [2, 4] was 4.20.
